Measured values as given in paper PMC7714403 (JCI Insight, 2020).

Columns and labels:
NDR1 = NDR1 (Homo sapiens, UniProt Q15208); test: KiNativ, OCI cells live cell; type: cell-based; details: 2 h
MAP2K1, MAP2K2 = test: KiNativ, OCI cells live cell; type: cell-based, human; details: labeling site Lys2, peptide DVKPSNILVNSR
MSK2 domain1 = target: T1, MSK2 domain1 (Homo sapiens, UniProt O75676); test: KiNativ, OCI cells live cell; type: cell-based; details: 2 h
T1 construct: MSK2 domain1

RSK1 domain2 = target: T2, RSK1 domain2 (Homo sapiens, UniProt Q15418); test: KiNativ, OCI cells live cell; type: cell-based; details: 2 h, labeling site Lys2, peptide […]
T2 construct: RSK1 domain2
T2 sequence (Q15418 whole entry, the tested form may be a part): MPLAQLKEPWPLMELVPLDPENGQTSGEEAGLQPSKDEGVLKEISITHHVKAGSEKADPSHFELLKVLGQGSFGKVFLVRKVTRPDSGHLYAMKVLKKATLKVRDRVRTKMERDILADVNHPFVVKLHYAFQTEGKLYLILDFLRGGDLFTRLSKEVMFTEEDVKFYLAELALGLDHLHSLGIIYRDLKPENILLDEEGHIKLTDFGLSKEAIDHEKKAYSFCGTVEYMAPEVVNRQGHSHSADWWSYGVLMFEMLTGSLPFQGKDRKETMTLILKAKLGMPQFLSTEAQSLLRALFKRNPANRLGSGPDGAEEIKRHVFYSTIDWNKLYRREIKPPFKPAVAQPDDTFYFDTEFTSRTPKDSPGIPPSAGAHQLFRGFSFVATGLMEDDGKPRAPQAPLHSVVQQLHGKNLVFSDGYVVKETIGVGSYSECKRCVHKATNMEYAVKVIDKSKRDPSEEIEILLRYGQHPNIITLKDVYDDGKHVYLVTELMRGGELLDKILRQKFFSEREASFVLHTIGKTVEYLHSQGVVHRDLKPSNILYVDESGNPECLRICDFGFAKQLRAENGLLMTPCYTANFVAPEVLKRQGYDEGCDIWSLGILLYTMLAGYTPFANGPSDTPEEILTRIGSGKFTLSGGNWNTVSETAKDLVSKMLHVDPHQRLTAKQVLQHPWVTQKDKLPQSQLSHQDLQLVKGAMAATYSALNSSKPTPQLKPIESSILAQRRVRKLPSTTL

ATR = ATR (Homo sapiens, UniProt Q13535); test: KiNativ, OCI cells live cell; type: cell-based; details: 2 h, labeling site ATP, peptide […]
MSK1 domain1 = target: T3, MSK1 domain1 (Homo sapiens, UniProt O75582); test: KiNativ, OCI cells live cell; type: cell-based; details: 2 h, labeling site Lys2, peptide […]
T3 construct: MSK1 domain1

PAN3 = target: T4, PAN3 (Homo sapiens, UniProt Q58A45); test: KiNativ, OCI cells live cell; type: cell-based; details: 2 h, labeling site ATP
T4 sequence (Q58A45 1-887): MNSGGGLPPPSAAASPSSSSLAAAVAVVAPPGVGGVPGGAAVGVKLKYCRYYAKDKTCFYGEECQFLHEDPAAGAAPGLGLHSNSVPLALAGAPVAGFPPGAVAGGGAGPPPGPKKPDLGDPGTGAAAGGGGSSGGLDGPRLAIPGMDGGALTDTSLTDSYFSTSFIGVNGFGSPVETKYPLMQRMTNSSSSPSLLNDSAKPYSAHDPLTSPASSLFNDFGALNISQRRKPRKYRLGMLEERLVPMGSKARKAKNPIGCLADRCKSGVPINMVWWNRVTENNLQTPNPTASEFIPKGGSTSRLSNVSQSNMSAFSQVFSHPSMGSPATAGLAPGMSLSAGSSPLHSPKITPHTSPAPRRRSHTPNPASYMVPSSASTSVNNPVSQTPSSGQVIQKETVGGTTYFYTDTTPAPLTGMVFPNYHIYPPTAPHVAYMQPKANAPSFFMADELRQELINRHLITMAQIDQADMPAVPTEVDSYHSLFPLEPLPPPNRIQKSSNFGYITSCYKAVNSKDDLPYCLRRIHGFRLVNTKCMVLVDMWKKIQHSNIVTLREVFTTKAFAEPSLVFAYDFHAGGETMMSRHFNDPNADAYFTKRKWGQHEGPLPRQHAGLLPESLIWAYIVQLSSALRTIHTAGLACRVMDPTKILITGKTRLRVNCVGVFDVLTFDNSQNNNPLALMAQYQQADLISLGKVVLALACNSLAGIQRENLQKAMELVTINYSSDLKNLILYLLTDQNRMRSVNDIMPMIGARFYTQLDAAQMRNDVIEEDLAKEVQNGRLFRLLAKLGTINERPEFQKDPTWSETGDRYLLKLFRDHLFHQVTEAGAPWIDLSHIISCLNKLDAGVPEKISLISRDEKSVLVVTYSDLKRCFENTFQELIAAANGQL

Erk5 = Erk5 (Homo sapiens, UniProt Q13164); test: KiNativ, OCI cells live cell; type: cell-based; details: 2 h, labeling site Lys2, peptide […]
Sequence of Erk5 (Q13164 whole entry, the tested form may be a part): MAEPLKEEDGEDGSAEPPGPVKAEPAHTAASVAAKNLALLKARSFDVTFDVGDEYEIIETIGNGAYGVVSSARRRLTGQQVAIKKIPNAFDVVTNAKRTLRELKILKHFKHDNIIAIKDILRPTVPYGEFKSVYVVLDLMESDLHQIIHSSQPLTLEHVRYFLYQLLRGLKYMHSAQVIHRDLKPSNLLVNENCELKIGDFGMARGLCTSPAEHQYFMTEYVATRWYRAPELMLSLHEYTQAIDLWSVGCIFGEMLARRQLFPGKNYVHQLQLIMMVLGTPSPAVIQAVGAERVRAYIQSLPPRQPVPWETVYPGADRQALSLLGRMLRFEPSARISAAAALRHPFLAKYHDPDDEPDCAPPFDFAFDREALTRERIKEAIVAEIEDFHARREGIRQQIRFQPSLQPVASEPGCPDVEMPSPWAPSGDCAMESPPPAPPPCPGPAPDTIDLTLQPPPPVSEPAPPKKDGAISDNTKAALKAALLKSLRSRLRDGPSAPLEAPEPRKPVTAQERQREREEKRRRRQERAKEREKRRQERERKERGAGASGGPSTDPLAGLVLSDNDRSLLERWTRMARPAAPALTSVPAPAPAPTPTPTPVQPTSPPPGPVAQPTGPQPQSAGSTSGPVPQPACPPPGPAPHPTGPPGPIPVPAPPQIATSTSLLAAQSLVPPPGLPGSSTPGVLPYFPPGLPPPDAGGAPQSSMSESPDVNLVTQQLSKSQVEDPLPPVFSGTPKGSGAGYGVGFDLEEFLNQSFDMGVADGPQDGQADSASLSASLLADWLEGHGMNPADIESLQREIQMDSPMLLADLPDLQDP

GCN2 domain2 = target: T5, GCN2 domain2 (Homo sapiens, UniProt Q9P2K8); test: KiNativ, OCI cells live cell; type: cell-based; details: 2 h
T5 construct: GCN2 domain2
T5 sequence (Q9P2K8 whole entry, the tested form may be a part): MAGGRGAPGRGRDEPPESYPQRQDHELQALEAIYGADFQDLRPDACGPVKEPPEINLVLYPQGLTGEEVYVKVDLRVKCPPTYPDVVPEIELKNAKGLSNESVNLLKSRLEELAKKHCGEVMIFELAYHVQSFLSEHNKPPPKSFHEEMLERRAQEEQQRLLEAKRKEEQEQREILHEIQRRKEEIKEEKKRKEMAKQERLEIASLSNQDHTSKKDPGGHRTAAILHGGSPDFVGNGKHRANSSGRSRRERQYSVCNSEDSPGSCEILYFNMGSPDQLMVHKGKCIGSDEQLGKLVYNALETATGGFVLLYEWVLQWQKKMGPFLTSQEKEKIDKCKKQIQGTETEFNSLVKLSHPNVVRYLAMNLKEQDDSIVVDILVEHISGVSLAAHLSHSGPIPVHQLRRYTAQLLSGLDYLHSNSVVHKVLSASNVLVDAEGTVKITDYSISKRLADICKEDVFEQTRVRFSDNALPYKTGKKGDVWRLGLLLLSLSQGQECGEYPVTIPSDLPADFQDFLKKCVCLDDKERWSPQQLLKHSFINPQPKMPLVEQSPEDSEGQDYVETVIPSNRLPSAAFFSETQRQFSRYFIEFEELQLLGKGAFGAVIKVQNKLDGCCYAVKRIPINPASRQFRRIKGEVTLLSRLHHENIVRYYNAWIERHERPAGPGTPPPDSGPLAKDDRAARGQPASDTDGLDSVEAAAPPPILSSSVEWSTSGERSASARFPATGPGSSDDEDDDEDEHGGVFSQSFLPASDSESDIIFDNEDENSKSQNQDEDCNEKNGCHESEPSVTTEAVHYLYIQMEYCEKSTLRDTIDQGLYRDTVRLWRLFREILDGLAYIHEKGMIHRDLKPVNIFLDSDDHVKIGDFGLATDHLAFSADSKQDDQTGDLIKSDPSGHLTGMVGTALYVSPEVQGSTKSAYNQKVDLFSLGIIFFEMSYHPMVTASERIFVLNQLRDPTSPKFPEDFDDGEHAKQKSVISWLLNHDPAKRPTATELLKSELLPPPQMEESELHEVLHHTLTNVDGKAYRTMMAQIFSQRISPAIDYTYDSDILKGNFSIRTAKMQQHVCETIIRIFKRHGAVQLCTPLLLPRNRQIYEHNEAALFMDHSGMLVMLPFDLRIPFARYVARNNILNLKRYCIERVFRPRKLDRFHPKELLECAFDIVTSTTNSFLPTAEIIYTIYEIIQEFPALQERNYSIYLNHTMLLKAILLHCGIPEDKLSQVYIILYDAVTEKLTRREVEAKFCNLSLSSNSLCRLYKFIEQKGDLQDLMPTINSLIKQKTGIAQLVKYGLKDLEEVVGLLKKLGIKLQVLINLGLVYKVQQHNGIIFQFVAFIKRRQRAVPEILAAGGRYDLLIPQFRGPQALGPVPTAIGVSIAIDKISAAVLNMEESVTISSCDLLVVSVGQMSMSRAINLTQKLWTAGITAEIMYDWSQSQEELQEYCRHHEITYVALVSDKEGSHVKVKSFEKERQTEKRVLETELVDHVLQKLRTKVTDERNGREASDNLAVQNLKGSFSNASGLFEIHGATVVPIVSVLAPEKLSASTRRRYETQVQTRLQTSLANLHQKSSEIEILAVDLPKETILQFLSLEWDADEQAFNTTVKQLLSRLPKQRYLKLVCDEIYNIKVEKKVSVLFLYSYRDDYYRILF

Erk1 = Erk1 (Homo sapiens, UniProt P27361); test: KiNativ, OCI cells live cell; type: cell-based; details: 2 h, labeling site Lys2, peptide […]
FLT3 ITD = FLT3 ITD (Homo sapiens, UniProt P36888, ITD); test: KdELECT binding assay
Sequence of FLT3 ITD (P36888 564-993, stated change not applied): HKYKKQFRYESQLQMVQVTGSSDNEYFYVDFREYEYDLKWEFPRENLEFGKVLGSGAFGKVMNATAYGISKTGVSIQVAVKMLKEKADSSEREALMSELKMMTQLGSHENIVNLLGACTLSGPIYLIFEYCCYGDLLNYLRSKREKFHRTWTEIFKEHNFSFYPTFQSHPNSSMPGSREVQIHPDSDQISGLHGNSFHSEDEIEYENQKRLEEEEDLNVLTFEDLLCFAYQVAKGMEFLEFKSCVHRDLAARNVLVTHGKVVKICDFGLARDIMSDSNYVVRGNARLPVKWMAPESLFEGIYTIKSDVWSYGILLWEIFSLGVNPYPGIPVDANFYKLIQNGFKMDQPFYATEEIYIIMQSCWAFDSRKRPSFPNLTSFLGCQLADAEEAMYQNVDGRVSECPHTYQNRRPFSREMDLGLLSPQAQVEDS

MAP2K4 = target: T6, MAP2K4 (Homo sapiens, UniProt P45985); test: KiNativ, OCI cells live cell; type: cell-based; details: 2 h
T6 sequence (P45985 1-399): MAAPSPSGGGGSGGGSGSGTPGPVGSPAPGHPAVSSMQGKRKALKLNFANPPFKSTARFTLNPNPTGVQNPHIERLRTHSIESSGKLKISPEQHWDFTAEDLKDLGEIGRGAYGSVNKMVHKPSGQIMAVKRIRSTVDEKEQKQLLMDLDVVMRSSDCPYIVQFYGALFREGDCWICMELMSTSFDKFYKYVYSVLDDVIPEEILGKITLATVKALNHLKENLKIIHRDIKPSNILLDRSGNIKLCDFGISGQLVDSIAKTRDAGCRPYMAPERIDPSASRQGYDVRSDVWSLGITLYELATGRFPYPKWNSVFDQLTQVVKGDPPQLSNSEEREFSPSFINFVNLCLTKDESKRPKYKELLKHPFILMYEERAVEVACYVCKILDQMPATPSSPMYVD

MAP2K7 = MAP2K7 (Homo sapiens, UniProt O14733); test: KiNativ, OCI cells live cell; type: cell-based; details: labeling site Lys2, peptide DVKPSNILLDER
IKKe, TBK1 = test: KiNativ, OCI cells live cell; type: cell-based, human; details: labeling site Lys2, peptide DIKPGNIMR
IRAK4 = target: T7, IRAK4 (Homo sapiens, UniProt Q9NWZ3); test: KiNativ, OCI cells live cell; type: cell-based
T7 sequence (Q9NWZ3 1-460): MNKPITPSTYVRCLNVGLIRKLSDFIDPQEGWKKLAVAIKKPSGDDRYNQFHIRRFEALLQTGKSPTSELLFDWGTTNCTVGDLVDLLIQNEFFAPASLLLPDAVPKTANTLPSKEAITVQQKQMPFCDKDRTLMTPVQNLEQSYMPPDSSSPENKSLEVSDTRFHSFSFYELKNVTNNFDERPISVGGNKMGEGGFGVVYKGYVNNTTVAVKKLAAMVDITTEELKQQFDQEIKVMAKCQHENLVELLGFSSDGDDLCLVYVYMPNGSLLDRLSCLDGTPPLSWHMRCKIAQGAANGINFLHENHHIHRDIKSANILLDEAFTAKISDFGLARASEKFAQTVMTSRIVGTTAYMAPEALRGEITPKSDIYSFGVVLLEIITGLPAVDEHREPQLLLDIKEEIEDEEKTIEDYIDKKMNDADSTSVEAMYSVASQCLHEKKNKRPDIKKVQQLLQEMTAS

T1 sequence (O75676 whole entry, the tested form may be a part): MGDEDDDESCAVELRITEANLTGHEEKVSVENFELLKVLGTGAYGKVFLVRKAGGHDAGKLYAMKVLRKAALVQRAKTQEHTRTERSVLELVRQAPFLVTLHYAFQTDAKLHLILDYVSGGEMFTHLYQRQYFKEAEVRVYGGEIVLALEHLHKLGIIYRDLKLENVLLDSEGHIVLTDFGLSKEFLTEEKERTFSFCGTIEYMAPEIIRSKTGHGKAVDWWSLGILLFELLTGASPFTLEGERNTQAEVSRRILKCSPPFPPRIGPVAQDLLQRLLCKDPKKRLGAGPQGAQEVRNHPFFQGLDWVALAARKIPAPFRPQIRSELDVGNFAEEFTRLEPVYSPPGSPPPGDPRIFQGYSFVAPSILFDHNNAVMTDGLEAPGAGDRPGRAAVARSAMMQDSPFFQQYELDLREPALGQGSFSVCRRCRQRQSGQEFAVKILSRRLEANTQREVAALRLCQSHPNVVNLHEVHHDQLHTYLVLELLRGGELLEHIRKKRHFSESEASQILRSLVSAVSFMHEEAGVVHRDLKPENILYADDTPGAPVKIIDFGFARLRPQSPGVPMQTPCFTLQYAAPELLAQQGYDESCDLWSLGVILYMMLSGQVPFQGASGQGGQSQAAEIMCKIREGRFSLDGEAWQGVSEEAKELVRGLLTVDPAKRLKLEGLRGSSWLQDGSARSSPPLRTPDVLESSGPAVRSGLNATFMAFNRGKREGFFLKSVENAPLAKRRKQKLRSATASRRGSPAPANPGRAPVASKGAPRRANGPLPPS
Sequence of NDR1 (Q15208 whole entry): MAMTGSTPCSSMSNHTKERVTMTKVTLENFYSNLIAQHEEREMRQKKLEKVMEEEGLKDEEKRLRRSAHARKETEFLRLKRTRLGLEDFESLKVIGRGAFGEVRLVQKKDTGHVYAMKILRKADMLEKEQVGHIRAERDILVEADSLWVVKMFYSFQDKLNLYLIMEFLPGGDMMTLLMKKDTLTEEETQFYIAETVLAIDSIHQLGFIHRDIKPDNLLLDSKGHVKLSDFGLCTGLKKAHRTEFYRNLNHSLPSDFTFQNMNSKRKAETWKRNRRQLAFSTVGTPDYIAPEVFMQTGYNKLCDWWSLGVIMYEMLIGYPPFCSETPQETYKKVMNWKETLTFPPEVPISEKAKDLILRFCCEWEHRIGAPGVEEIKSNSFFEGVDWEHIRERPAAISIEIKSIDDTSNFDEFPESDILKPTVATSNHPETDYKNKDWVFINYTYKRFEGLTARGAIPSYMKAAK

## CN1CCN(Cc2ccc(Nc3ncc(Cl)c(Nc4ccccc4S(=O)(=O)N(C)C)n3)cc2)CC1 [TP-0903]
NDR1; labeling site Lys1, peptide DTGHVYAMKILR
  inhibition at 0.1 µM: 12.3%
NDR1; labeling site Lys2, peptide DIKPDNLLLDSK
  inhibition at 0.1 µM: -7.7%
MAP2K1, MAP2K2
  Inhibition: 11.7%
MSK2 domain1; labeling site Lys1, peptide LYAMKVLR
  inhibition at 0.1 µM: 21.8%
MSK2 domain1; labeling site Lys2, peptide DLKLENVLLDSEGHIVLTDFGLSK
  inhibition at 0.1 µM: 12.3%
RSK1 domain2
  inhibition at 0.1 µM: 8.6%
ATR
  inhibition at 0.1 µM: 13%
MSK1 domain1
  inhibition at 0.1 µM: 8.3%
PAN3; peptide IQKSSNFGYITSCYK
  inhibition at 0.1 µM: -8.4%
PAN3; peptide VMDPTKILITGK
  inhibition at 0.1 µM: -9.4%
Erk5
  inhibition at 0.1 µM: 86.8%
GCN2 domain2; labeling site Lys1, peptide LDGCCYAVKR
  inhibition at 0.1 µM: -6.9%
GCN2 domain2; labeling site Lys2, peptide DLKPVNIFLDSDDHVK
  inhibition at 0.1 µM: -2.8%
Erk1
  inhibition at 0.1 µM: 17.7%
FLT3 ITD
  Kd: 5.6 nM
MAP2K4; labeling site Activation Loop, peptide LCDFGISGQLVDSIAKTR
  inhibition at 0.1 µM: -0.165%
MAP2K4; labeling site Lys1, peptide MVHKPSGQIMAVKR
  inhibition at 0.1 µM: 5.4%
MAP2K4; labeling site Lys2, peptide DIKPSNILLDR
  inhibition at 0.1 µM: 3.5%
MAP2K7
  Inhibition: -6.6%
IKKe, TBK1
  Inhibition: 64.1%
IRAK4; labeling site Lys1, peptide GYVNNTTVAVKK
  Inhibition: -0.0707%
IRAK4; labeling site Lys2, peptide DIKSANILLDEAFTAK
  Inhibition: 8.2%
